Laboratory results reported in patent US20040122065A1 (priority 2002, published 2004).

Assay: Pharmacokinetic crossover trial: 2 mg sublingual tablet vs 4 mg commercial oral tizanidine (Zanaflex), plasma tizanidine by HPLC
Assay type: in vivo
Settings: human
Protocol: Two groups were randomized and there was a one week washout period between administrations. The volunteers were in the fasted state when the drugs were administered. The sublingual tablets were placed under the tongue for 5 minutes and tablet remnants, if any, were swallowed. The oral formulation was administered with a glass of water. Blood samples were taken at 0, 0.5, 1.0, 1.5, 2.0, 2.5, 3.0, 4.0, 5.0, 6.0 and 7.0 hours after administration. […] The samples were blinded from the analysts.

concentration at 0 h (other: sublingual, 2 mg, Plasma Tizanidine Levels, sublingual delivery of 2 mg tizanidine (sublingual tablet), fasted, 0 h after dosing, one column per test subject): < 98.4 ng/g | concentration at 0 h (po, 4 mg): < 98.4 ng/g
Compound: Clc1ccc2nsnc2c1NC1=NCCN1 [Tizanidine, 5-Chloro-N-(4,5-dihydro-1H-imidazol-2-yl)-2,1,3-benzothiadiazol-4-amine]
